Data reported in US11135223B2, “Compositions and methods for inhibiting Dkk-1” (YALE UNIVERSITY, priority 2016, dated 2021).

System: L. major
Assay: Leishmania (L.) major infection model
Type: in vivo, BALB/c mice
Experimental: FIG. 4, comprising FIG. 4A through FIG. 4H, depicts results of experiments showing functional inhibition of Dkk-1 protects the host from chronic inflammation caused by L. major. FIG. 4A depicts a schematic diagram for Dkk-1 inhibitor treatment (10 μg/kg/time) in six-week-old female BALB/c mice. FIG. 4B depicts analysis of parasite burden in the infected foot from each mouse at day 42. FIG. 4C depicts the lesion size in the infected foot from each mouse at day 42. FIG. 4D depicts the cell count of macrophages in the infected hindfoot of mice two weeks after vehicle (n=5) or Dkk-1 inhibitor treatment (n=5) counted by flow cytometry and compared with infected (untreated) and uninfected BALB/c mice (n=3). FIG. 4E depicts results of draining lymph node cells from each mouse (n=5/group) that were stimulated with sLMAG (soluble leishmania antigen) 2 weeks after infection. FIG. 4F depicts results of draining lymph node cells from each mouse (n=5/group) were stimulated with sLMAG 6 weeks after infection. FIG. 4G depicts the CD4 cell percentage in draining lymph nodes from each group was determined by flow cytometry. FIG. 4H depicts CD4 T cell numbers in draining lymph nodes from each group was determined by flow cytometry. A representative of two independent experiments is shown. Student's t-test and one-way-ANOVA analysis with Dunnet's post-hoc test were performed. **, p<0.005, *, p<0.05.
FIG. 17, comprising FIG. 17A and FIG. 17B, depicts results of experiments showing a Dkk-1 monoclonal antibody treatment protects BALB/c mice from chronic inflammation caused by L. major. FIG. 17A depicts the number lymph node cells were in L. major infected BALB/c mice injected with a Dkk-1 monoclonal antibody or isotype control antibody. BALB/c mice were infected with L. major (2 million parasites/animal) on day 0. Dkk-1 mAb or isotype control antibody (100 μg/injection) was injected intraperitoneally into six-week-old female BALB/c mice on day −1, +1, +3, +5, +7, +9, +11, +14 (n=6). On day 14, mice were sacrificed, and their drained lymph node cells were counted. Student's t-test was performed. *,p<0.05. FIG. 17B depicts the lesion size in BALB/c mice injected with a Dkk-1 monoclonal antibody or isotype control antibody. Six-week-old female BALB/c mice were infected with L.major, and DKK-1 mAb was treated intraperitoneally on day −1, +1, +3, +5, +7, +9, +11, +14, +21 and +28. Lesion size for each mouse was measured on day 12, 22, and 32. Student's t-test was performed. *, p<0.05.
L. major WR309 strain (MHOM/IL/79/LRC-L251) was originally isolated from a human case of cutaneous leishmaniasis in Israel and has been maintained through culture and frequent passages in mice to maintain virulence. BALB/c mice were infected with 2×10^6 late stationary promastigotes isolated from a Percoll gradient. For monitoring 2 week and 6 week experiments, Dkk-1 inhibitor (10 mg/kg) or vehicle (50 μl DMSO) was injected on day −1, +1, +3, +5, +7, +9, +11 and weekly afterwards till harvest. Draining lymph nodes, nondraining lymph nodes, and plasma were collected. For ex vivo analysis, soluble Leishmania major antigen (sLMAg) was employed. Single cell suspension of draining and non-draining lymph node cells was incubated with sLMAg (equivalent to 5×10^6 organisms/ml final) for 96 hr. Supernatants were harvested and analyzed by ELISA assays. For depleting platelets, 80 μg of anti-CD42 mAb (Emfret Analytical) was injected intravenously in 100 μl PBS. Equal amounts of isotype-matched control Ab (eBioscience) was used for control group animals. Tissues from mice were harvested on day 3 post-infection for analysis.
To determine the ability of an anti-Dkk-1 monoclonal antibody (Dkk-1 mAb) to protect BALB/c mice against chronic inflammation caused by L. major, 6-week old BALB/c mice were infected with L.major (2 million parasites/animal) on day 0. A Dkk-1 mAb or isotype control antibody (100 μg/injection) was injected intraperitoneally on day −1, +1, +3, +5, +7, +9, +11, +14 (n=6). […]

[1] = BALB/c mice, infected foot, 42 days post-infection
[2] = days 14 and 42 post-infection, ex vivo stimulation of draining lymph node cells with sLMAG

Q: With `NCC1CCN(c2nccc(-c3ccc4ccccc4c3)n2)CC1` [WAY-262611, (1-(4-(naphthalen-2-yl)pyrimidin-2-yl)piperidin-4-yl)methanamine] as the compound, how does the “reduction of parasite survival” value (BALB/c mice, 10 mg/kg intraperitoneally, 42 days post-infection) read?
A: 11.5 fold

Q: What about the lesion size [1] of the same compound?
A: greatly reduced

Q: What about the parasite burden [1] of the same compound?
A: greatly reduced

Q: And the “percentage of CD4 T cells in draining lymph nodes (dLN)” value (FIG. 4G)?
A: did not reduce

Q: What about the “number of CD4 T cells in the dLN” value (FIG. 4H) of the same compound?
A: reduced

Q: And the IL-4 production [2]?
A: notably reduced

Q: What about the IL-10 production [2] of the same compound?
A: notably reduced

Q: And the “Macrophage accumulation following parasite infection” value (infected hindfoot, 14 days after infection)?
A: diminished
